The source of these data is patent publication US20090048301A1 (IMCLONE SYSTEMS INCORPORATED, priority 2003, published 2009).

Molecules are shown by their SMILES.

For experiment [1], the system named is A431 human cancer cell line. Put plainly: Sulphorhodamine B (SRB) growth inhibition assay. In kind it is cell-based. To be noted: A-431, A431 cells, 48 hours, read-out: SRB Assay: μM required to inhibit tumor cell growth by 50% (GI50). How it is done:
The in vitro growth inhibition activity of the compounds was determined by the Sulphorhodamine B assay. (Skehan P, Storeng R, Scudiero D, Monks A, McMahon J, Vistica D, Warren J T, Bokesch H, Kenney S, Boyd M R. New colorimetric cytotoxicity assay for anticancer-drug screening. J Natl Cancer Inst 82, 1107-1112, 1990). Sulphorhodamine B binds to basic amino acids and stains proteins which can be eluted and detected spectrophotometically by measuring absorbance at 515 nm. The absorbance was indicative of the total protein content of the cells fixed to the walls of the plate well at a given time by trichloroacetic acid, which is a measure of the viable cell concentration.
The in vitro growth inhibition activity of the compounds was determined using a Sulphorhodamine B assay. See, Skehan et al., “New colorimetric cytotoxicity assay for anticancer-drug screening,” J. Natl. Cancer Inst., 82, 1107-1112, (1990). Sulphorhodamine B binds to basic amino acids and stains proteins which can be eluted and detected spectrophotometically by measuring absorbance at 515 nm. The absorbance indicates the total protein content of the cells fixed to the walls of the plate well at a given time by trichloroacetic acid, which is a measure of the viable cell concentration.
The reagents used in the assay can be purchased from commercial sources and include Sulphorhodamine B 0.4% (w/v) in 1% (v/v) acetic acid (Sigma Cat#S-1402); trichloroacetic acid 50% (w/v) in deionized water, working solution (Sigma Cat#T-9159); and trizma base (Tris) 10 mM working solution, pH 7.5 (Sigma Cat#T-7693).
The procedure was cared out over four days. In Day 1, the cells were seeded in a seed 10,000 cells/100 μL/well in 96 well plate in duplicates as per template. Also, seed cells in extra plate for time zero (To plate). Thereafter, the cells were incubated for 24 hours at 37° C. with 5% CO2.
On Day 2, the test compound was added to the cells at five log doses from 100 μM to 0.01 μM (Volume of addition=100 μL in 1% DMSO for all compound concentrations, Control treatment=1% DMSO).
The compounds were prepared by weighing the test compounds in 1.5 ml eppendorf tubes and calculating the volume of DMSO to be added to bring the concentration of the compound to 20 mM. Thereafter, a 20 mM stock was made and diluted by four 10 fold dilutions in DMSO to get 2, 0.2, 0.02 and 0.002 mM solutions. Each solution was diluted 100 times (10 μL to 1 ml medium) and a further addition to the culture plate (100 μL) to half the concentration of cells was made. The final well concentration for 20 mM stock was 100 μM and similarly with other test concentrations.
The cells were incubated for 48 hours at 37° C. with 5% CO2 and terminated by adding 50 μL of 50% cold trichloroacetic acid (10% to final). Thereafter, the cells were incubated for one hour at 4° C.
On Day 4, the cells were fixed to the wells by the addition of 50 μL of 50% cold trichloroacetic acid (10% to final) and incubated for 1 hour at 4° C. The supernatant was discarded by force inverting the plate into the sink followed by washing thrice with tap water and the plates are then air-dried. 100 μL SRB (0.4% in 1% acetic acid) was added to each well and the plates were incubated for 10 minutes at room temperature. Unbound dye was removed by force inverting the plate into the sink and washing thrice with 1% acetic acid. Thereafter, the plates were allowed to air dry.
Bound SRB was solubilized with 100 μL of 10 mM Tris, pH 7.4 and the absorbance was measured at a wavelength of 515 nm.
A sample set of calculations was performed as follows. The percentage growth was calculated by T-To/C-To X 100 if T>To and T-To/To X 100 if T<To, wherein T is Test OD (with compound), C is Control OD, To is Time Zero OD (cell growth at the time of drug addition). […]

The subject of another experiment is bovine tubulin. The experiment can be described thus: In vitro tubulin polymerization assay (turbidity at 340 nm). In kind it is biochemical. The settings on record: 10 μM compound, 30 minute data point, vs 1% DMSO control. The method, boiled down:
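Percent inhibition derives from turbidity (340 nm) at 30 min relative to 1% DMSO controls, read every minute at 37° C. Polymerization mix: 3 mg/ml bovine tubulin, <3% MAPs, in PIPES pH 7 G-PEM with 1 mM GTP, 1 mM MgCl2, 5% glycerol; enhancers also detectable.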

What is called GI50 is the concentration that inhibits growth by half. For the compound `COc1cc(Nc2nnc(-c3cccnc3NCc3ccc4c(c3)OCO4)[nH]2)cc(OC)c1` [Compound 16, Benzo[1,3]dioxol-5-ylmethyl-{3-[5-(3,5-dimethoxy-phenylamino)-4H-[1,2,4]triazol-3-yl]-pyridin-2-yl}-amine], in experiment [1], the GI50 stood at 2.5 µM. Moreover, the “Tubulin Assay: percent inhibition at 10 μM based on 30 minute data” value (shortened to “Tubulin Assay: percent inhibition”) in the experiment on bovine tubulin is on record as 41%.
In the same order, the values of `COc1cc(Nc2ncccc2-c2nnc(Nc3ccc(OC)cc3OC)[nH]2)cc(OC)c1` [Compound 12, (3,5-Dimethoxy-phenyl)-{3-[5-(2,4-dimethoxy-phenylamino)-4H-[1,2,4]triazol-3-yl]-pyridin-2-yl}-amine] are 20 µM and 46%.
On the same counts, the results for `COc1cccc(-c2nnc(-c3cccnc3NCc3ccc4c(c3)OCO4)[nH]2)c1` [Compound 80, Benzo[1,3]dioxol-5-ylmethyl-{3-[5-(3-methoxy-phenyl)-4H-[1,2,4]triazol-3-yl]-pyridin-2-yl}-amine] are 8 µM and 46%.
`COc1cccc(Nc2nnc(-c3cccnc3NCc3ccc4c(c3)OCO4)o2)c1` [Compound 186, Benzo[1,3]dioxol-5-ylmethyl-{3-[5-(3-methoxy-phenylamino)-[1,3,4]oxadiazol-2-yl]-pyridin-2-yl}-amine]: the GI50 in experiment [1] turned out to be 100 µM. Moreover, in the experiment with bovine tubulin, the “Tubulin Assay: percent inhibition” value is listed as 42%.
In the same order, the values of `COc1ccc(Nc2nnc(-c3cccnc3Nc3ccc4c(c3)OCO4)[nH]2)c(OC)c1` [Compound 10, Benzo[1,3]dioxol-5-yl-{3-[5-(2,4-dimethoxy-phenylamino)-4H-[1,2,4]triazol-3-yl]-pyridin-2-yl}-amine] are 20 µM and 73%.
With `COc1ccc(Nc2nnc(-c3cccnc3Nc3ccc4c(c3)OCO4)[nH]2)cc1` [Compound 8, Benzo[1,3]dioxol-5-yl-{3-[5-(4-methoxy-phenylamino)-4H-[1,2,4]triazol-3-yl]-pyridin-2-yl}-amine], the GI50 in experiment [1] was 0.3 µM. Further, in the experiment with bovine tubulin, the “Tubulin Assay: percent inhibition” value is 100%.
On the same counts, the results for `O=C1CCCN1CCCNc1ncccc1-c1nnc(Nc2ccc3c(c2)OCO3)o1` [Compound 194, 1-(3-{3-[5-(Benzo[1,3]dioxol-5-ylamino)-[1,3,4]oxadiazol-2-yl]-pyridin-2-ylamino}-propyl)-pyrrolidin-2-one] are 3 µM and 80%.
For `c1ccc(-c2nnc(Nc3ccc4c(c3)OCO4)o2)c(NCc2ccncc2)c1` [Compound 225, Benzo[1,3]dioxol-5-yl-(5-{2-[(pyridin-4-ylmethyl)-amino]-phenyl}-[1,3,4]oxadiazol-2-yl)-amine], in experiment [1], the GI50 stood at 15 µM. In addition, in the experiment with bovine tubulin, the “Tubulin Assay: percent inhibition” value is 91%.
On to `FC(F)(F)c1ccc(-c2nnc(-c3cccnc3NCc3cccnc3)[nH]2)cc1` [Compound 86, Pyridin-3-ylmethyl-{3-[5-(4-trifluoromethyl-phenyl)-4H-[1,2,4]triazol-3-yl]-pyridin-2-yl}-amine], for which the 50% growth inhibitory concentration (GI50) in experiment [1] worked out at 2.2 µM. The “Tubulin Assay: percent inhibition” value with bovine tubulin is 31%.
On the same counts, the results for `COc1cc(Nc2nnc(-c3cccnc3Nc3cc(OC)cc(OC)c3)o2)cc(OC)c1` [Compound 187, (3,5-Dimethoxy-phenyl)-{3-[5-(3,5-dimethoxy-phenylamino)-[1,3,4]oxadiazol-2-yl]-pyridin-2-yl}-amine] are 80 µM and 48%.
In the same order, the values of `COc1cc(OC)cc(-c2nnc(-c3ccccc3NCc3ccncc3)[nH]2)c1` [Compound 132, {2-[5-(3,5-Dimethoxy-phenyl)-4H-[1,2,4]triazol-3-yl]-phenyl}-pyridin-4-ylmethyl-amine] are 100 µM and 46%.
On to `COc1cc(OC)cc(-c2nnc(-c3cccnc3NCc3cccnc3)[nH]2)c1` [Compound 87, {3-[5-(3,5-Dimethoxy-phenyl)-4H-[1,2,4]triazol-3-yl]-pyridin-2-yl}-pyridin-3-ylmethyl-amine], for which the GI50 in experiment [1] is 30 µM. The “Tubulin Assay: percent inhibition” value in the experiment on bovine tubulin turned out to be 85%.
In the same order, the values of `Fc1ccc(OCc2nnc(-c3cccnc3NCc3ccc4c(c3)OCO4)[nH]2)cc1` [Compound 109, Benzo[1,3]dioxol-5-ylmethyl-{3-[5-(4-fluoro-phenoxymethyl)-4H-[1,2,4]triazol-3-yl]-pyridin-2-yl}-amine] are 30 µM and 41%.
In the same order, the values of `COc1ccc(OC)c(Nc2nnc(-c3cccnc3Nc3ccc4c(c3)OCO4)[nH]2)c1` [Compound 9, Benzo[1,3]dioxol-5-yl-{3-[5-(2,5-dimethoxy-phenylamino)-4H-[1,2,4]triazol-3-yl]-pyridin-2-yl}-amine] are 25 µM and 47%.
In the same order, the values of `CS(=O)(=O)c1ccc(-c2nnc(-c3cccnc3NCc3cccnc3)[nH]2)cc1` [Compound 89, {3-[5-(4-Methanesulfonyl-phenyl)-4H-[1,2,4]triazol-3-yl]-pyridin-2-yl}-pyridin-3-ylmethyl-amine] are 5 µM and 85%.
With `CS(=O)(=O)c1ccc(-c2nnc(-c3cccnc3NCCCN3CCCC3=O)[nH]2)cc1` [Compound 75, 1-(3-{3-[5-(4-Methanesulfonyl-phenyl)-4H-[1,2,4]triazol-3-yl]-pyridin-2-ylamino}-propyl)-pyrrolidin-2-one], in experiment [1], the concentration for 50% growth inhibition (GI50) was determined as 80 µM. The “Tubulin Assay: percent inhibition” value in the experiment on bovine tubulin worked out at 60%.
For `COc1cccc(Nc2nnc(-c3cccnc3NCc3cccnc3)o2)c1` [Compound 185, {3-[5-(3-Methoxy-phenylamino)-[1,3,4]oxadiazol-2-yl]-pyridin-2-yl}-pyridin-3-ylmethyl-amine], the 50% growth inhibitory concentration (GI50) in experiment [1] was determined as 30 µM. Besides, the “Tubulin Assay: percent inhibition” value in the experiment with bovine tubulin came out at 40%.
In the same order, the values of `FC(F)(F)Oc1ccc(Nc2nnc(-c3cccnc3NCc3ccc4c(c3)OCO4)o2)cc1` [Compound 179, Benzo[1,3]dioxol-5-ylmethyl-{3-[5-(4-trifluoromethoxy-phenylamino)-[1,3,4]oxadiazol-2-yl]-pyridin-2-yl}-amine] are 30 µM and 28%.
In the same order, the values of `Fc1cccc(-c2nnc(-c3cccnc3NCc3ccc4c(c3)OCO4)[nH]2)c1` [Compound 82, Benzo[1,3]dioxol-5-ylmethyl-{3-[5-(3-fluoro-phenyl)-4H-[1,2,4]triazol-3-yl]-pyridin-2-yl}-amine] are 20 µM and 30%.
On the same counts, the results for `COc1cc(CNc2ncccc2-c2nnc(-c3cccc(OC)c3)[nH]2)cc(OC)c1` [Compound 79, (3,5-Dimethoxy-benzyl)-{3-[5-(3-methoxy-phenyl)-4H-[1,2,4]triazol-3-yl]-pyridin-2-yl}-amine] are 20 µM and 32%.
